Source: patent US20100330028A1, “COMBINATION THERAPY FOR CHRONIC DERMAL ULCERS” (The Board of Regents THe Universityof Texas System, priority 2007, published 2010)

Experiments:
[1] = test system: thrombin receptor; settings: cited from earlier work
[2] = test system: thrombin receptor; settings: cited from earlier work; remark: listed apart in the source
[3] = test system: AC-23; assay: Binding of biotin-conjugated thrombin to complementary peptide AC-23
[4] = test system: 23C53; assay: Binding of biotin-conjugated thrombin to complementary peptide 23C53
Sequence of 23C53 (as listed by the source): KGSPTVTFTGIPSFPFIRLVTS

[5] = test system: Human coronary artery endothelial (HCAE) cells; assay: Invasion of HCAE cells through Matrigel toward PDGF; type: cell-based; settings: PDGF 10 ng/ml, 22 h
Protocol: (§1) The design of experiments to measure invasion and migration of endothelial cells toward the angiogenic factor PDGF (platelet-derived growth factor-BB) is shown in FIGS. 7A and 8A respectively. The standard assay used 5×10^4 cells added to the top of the insert in 250 μl of medium. The lower portion of the apparatus contained 750 μl of medium, plus or minus PDGF. […] Transmembrane cell invasion and migration assays were performed using BD FluoroBlok inserts coated with BD Matrigel Matrix (a biologically active basement membrane preparation) or with fibronectin (BD Bioscience, Bedford, Mass.), respectively. […] PDGF [10 ng/ml] (R&D System, Minneapolis, Minn. (PDGF) or medium alone (CTR) were added to the lower chamber of the insert plate as a chemoattractant. The cells were allowed to invade or migrate for 22 hours. Cells were labeled post invasion or post migration with Calcein AM (4 μg/ml) and the fluorescence of the cells that invaded through the BD Matrigel Matrix or migrated to the underside of the insert membrane was measured using a plate reader at 485 nm (excitation) and 530 nm (emission).

[6] = test system: Human coronary artery endothelial (HCAE) cells; assay: Migration of HCAE cells through fibronectin-coated insert toward PDGF; type: cell-based; settings: PDGF 10 ng/ml, 22 h
Protocol: as §1

[7] = test system: Human coronary artery endothelial (HCAE) cells; assay: Invasion of HCAE cells through Matrigel toward bFGF; type: cell-based; settings: bFGF 10 ng/ml, 22 h
Protocol: (§2) The design of experiments to measure invasion and migration of endothelial cells toward the angiogenic factor bFGF (basic fibroblast growth factor) is shown in FIGS. 5A and 6A, respectively. The standard assay used 5×10^4 cells added to the top of the insert in 250 μl of medium. The lower portion of the apparatus contained 750 μl of medium, plus or minus bFGF. […] Transmembrane cell invasion and migration assays were performed using BD FluoroBlok (BD Bioscience, Bedford, Mass.) inserts coated with BD Matrigel Matrix (a biologically active basement membrane preparation) or with fibronectin, respectively. […] (R&D System, Minneapolis, Minn.) (FGF) or medium alone (CTR) were added to the lower chamber of the insert plate as a chemoattractant. The cells were allowed to invade or migrate for 22 hours. Cells were labeled post invasion or post migration with Calcein AM (4 μg/ml) and the fluorescence of the cells that invaded through the BD Matrigel Matrix or migrated to the underside of the insert membrane was measured using a plate reader at 485 nm (excitation) and 530 nm (emission).

[8] = test system: Human coronary artery endothelial (HCAE) cells; assay: Migration of HCAE cells through fibronectin-coated insert toward bFGF; type: cell-based; settings: bFGF 10 ng/ml, 22 h
Protocol: as §2

Sequence of AC-23 (as listed by the source): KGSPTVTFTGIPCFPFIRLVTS

## p508-530: stimulatory thrombin polypeptide derivative containing fibronectin- and serine protease-homologous domains, residues 508 to 530 of human thrombin
[1]
  Binding to thrombin receptors: bind to thrombin receptors with high-affinity
[2]
  Induction of mitogenesis / mitogenic signals: substitute for DIP-alpha-thrombin as an initiator of receptor occupancy-related mitogenic signals

## thrombin
[3]
  Specific binding of biotin-conjugated thrombin to AC23: bind specifically
[4]
  Specific binding of biotin-conjugated thrombin to 23C53: bind specifically

## p519-530: intermediate thrombin peptide derivative, residues 519-530 of human thrombin (QPSVLQVVNLPI; UniProt P00734 519-530, looked up, fragment)
[2]
  Induction of mitogenesis / mitogenic signals: retains the ability to mediate mitogenesis but to a much lesser degree than p508-530

## PDGF
[5]
  Effect of PDGF on endothelial cell invasion compared to control medium without PDGF: no effect
[6]
  Effect of PDGF on endothelial cell migration compared to control (CTR): no effect

## bFGF: angiogenic factor basic fibroblast growth factor (R&D System)
[7]
  bFGF-induced endothelial cell invasion as % of invasion with control medium (CTR): ~170%
[8]
  Increase of endothelial cell migration by bFGF compared to control medium not containing bFGF: ~40%
